# Experiments:
# non-ALS patients = test: Intravenous and subcutaneous TRH in non-ALS patients with lower or upper motor neuron abnormality (Example VII); format: in vivo, human; conditions: i.v. and s.c., seven non-ALS patients
# Text: The dosage, benefits and side-effects were essentially similar to those described in Examples II, V and VI.
# [1] = system: infant with infantile spinal muscular atrophy; parameters: species or system human; conditions: in vivo
# [2] = system: amyotrophic lateral sclerosis patients; test: Effect of TRH on chronic joint pain in ALS patients (Example VIII); format: in vivo, human; conditions: after TRH treatment
# Text: In untreated amyotrophic lateral sclerosis patients, especially in more advanced stages of the disease, aching of joints is common, (e.g., in a "frozen shoulder" or painful hip). Often, the pain is so severe as to impair sleep. […] The reduction of pain was clearly appreciated when the patients were awake, and it also allowed much more restful nights without their being awakened frequently by pain. […] A logical extension of this observation is that pain of many causes, including other forms of arthritic pain, might be lessened by TRH, or an analog, active derivative or analog of an active derivative of TRH.
# [3] = system: non-ALS person with chronic juvenile proximal spinal muscular atrophy; format: in vivo, human
# ALS patients [4] = format: in vivo, human
# Method: Nine fasting ALS patients (seven men, and two women; duration of disease, two, three, five-sixths of a year, five-sixths of a year, two and a half, four, one, one and four years, respectively) were given intravenous TRH at rates of 0.5-8 mg/minute, total 500 mg during two to five hours in one day, for one or two days. Due to the fact that the effects during the second day resembled those on the first day in the first two patients (men) and because supplies of TRH were limited, […] were treated for one day only. Before and throughout TRH administration, motor functions were repeatedly examined, the tests being selected according to the specific clinical involvement in each patient. Testing in all patients was videotaped. […] For example, muscles (such as biceps, triceps, deltoid, iliopsoas, or peroneal) that could be overcome easily by one finger before TRH administration became completely resistant to the full force of the examiner's hand (i.e., became normal or virtually normal). In one person, thumb abduction and finger-thumb pincer movement, easily overcome before the infusion of TRH, became normal. […] Speech clarity and volume improved. Spasticity of the legs lessened, as evidenced by easier, more rapid and "looser" bicycling-like movement, heel-shin movement and heel-knee tapping of the legs, as well as more agile walking.
# As an extension of the Example III and IV studies, a total of twenty-three patients (including those of Examples II and IV) were given 156 intravenous dose-days total.
# (§1) There were several control aspects of the TRH studies. […] The patients given subcutaneous TRH had treatments interspersed with saline placebo injections. […] The time course of response was not known before the study and, in fact, it was expected that the onset would be later and the duration of response longer than was actually found. Different patients responded to different doses of TRH, and the sex difference in response (woman apparently less responsive) was not expected. […] There were three observers, one unaware of the infusion status. In addition, clinical examinations of all patients of Examples III-VII were videotaped and later reviewed by several observers.
# ALS patients [5] = format: in vivo, human; remark: listed apart in the source
# Method: As shown in Examples I-V, intravenous infusion of thyrotropin-releasing hormone improves weakness and spasticity from lower motor neuron and upper motor neuron involvement in patients with amyotrophic lateral sclerosis and proximal spinal muscular atrophy. In an additional study, forty-one ALS patients were treated with 461 days of subcutaneous TRH administered 75-150 mg once daily or 75 mg twice daily. The subcutaneous doses were sometimes administered by patients or spouses. Included were all forms of ALS, and all patients were videotaped pre- and post-treatment. […] Saline injections produced no responses. The previously-noted lesser benefit and side-effects in females was less evident.
# Benefit and side-effects of TRH administered subcutaneously were qualitatively and quantitatively similar to those of intravenous TRH described in Examples III and IV. […] Response times were somewhat different.
# as §1
# In each of the foregoing Examples, the TRH was administered in a normal saline solution containing 100 mg/ml of TRH. The pH of the solution was not adjusted. This particular carrier and strength was selected for its ready availability, the convenience in calculating dosages administered and its similarity to the placebo solution, and additional carriers may be employed as desired. Timed-release carriers would be particularly advantageous, and are within the scope of the invention.
# ALS patients [6] = test: Transient autorefractory effect, subcutaneous TRH in ALS patients; format: in vivo, human
# Text: Possible mechanisms for autorefractoriness, presumably involving the lower motor neuron soma/dendrites and/or neurons afferent thereto, include: […] In normal animals, repeated micropipetting of TRH near lower motor neurons has been shown by others to cause a similar prolonged unresponsiveness. The mechanism of autorefractoriness may be, in general, related to the excellent clinical anti-spasticity benefits of TRH, and non-excitatory TRH analogs may be employed within the spirit of the invention to enhance this type of clinical improvement.
structure (smiles),measurement,setting,value
"NC(=O)[C@@H]1CCCN1C(=O)[C@H](Cc1cnc[nH]1)NC(=O)[C@@H]1CCC(=O)N1 [TRH, L-pyroglutamyl-L-histidyl-L-prolinamide]",benefit,non-ALS patients,markedly benefited
same,safety and benefit on strength,[1],safety without side-effects and possible benefit on strength
same,arthritic (joint) pain,[2],striking improvement
same,duration of pain improvement,[2],as long as one to four days
same,muscle strength,"[3]; 1-8 mg/minute i.v., 500 mg total, several muscle functions",slight to moderate improvement of strength
same,sensitivity to TRH relative to the men,[3]; i.v.,one-fourth to one-eighth as sensitive
same,intravenous rate at which an acute increase in strength occurred,[3]; printed as Example IV (summary),4.7 mg/min
same,intravenous rate at which striking improvement was shown,ALS patients [4]; Examples II and III (summary),2 mg/min
same,minimum intravenous infusion rate per body weight,ALS patients [4]; based on average patient weight of 70 kilograms,≥ 14.3 μg/minute/kg of body weight
same,benefit and side-effects in the two women,ALS patients [4]; i.v. 0.5-8 mg/minute,much less benefit and many fewer side-effects than the men
same,quantitative response of women relative to men,ALS patients [4]; i.v. 0.5-8 mg/minute,resembled those of men on one-half to one-fourth of the TRH dosage
same,ankle clonus,ALS patients [4]; i.v. 2-8 mg/minute,decreased or disappeared
same,brisk tendon reflexes,ALS patients [4]; i.v. 2-8 mg/minute,diminished not at all or only slightly
same,extensor plantar (Babinski) responses,ALS patients [4]; i.v. 2-8 mg/minute,"improved, becoming neutral or normal flexor"
same,fasciculations,ALS patients [4]; i.v. 2-8 mg/minute,appeared to be unchanged
same,spasticity of the legs,ALS patients [4]; i.v. 2-8 mg/minute,lessened
same,speech clarity and volume,ALS patients [4]; i.v. 2-8 mg/minute,improved
same,vital capacity,ALS patients [4]; i.v. 2-8 mg/minute,"increased, by as much as one liter"
same,residual improvement after the end of the infusion,"ALS patients [4]; i.v., total 500 mg",some slight improvement still evident twenty hours after the end of the infusion
same,time improvements were sustained after the infusion,"ALS patients [4]; i.v., total 500 mg during two to five hours",one-half to one hour afterwards
same,improvement of muscle weakness and spasticity,"ALS patients [4]; men, i.v. 2-8 mg/minute, in some areas of involvement",striking improvement
same,duration of full benefit after intravenous infusions,ALS patients [4]; summary,up to one hour
same,improvement in neurologic deficits from hypofunction of lower and upper motor neurons,"ALS patients [5]; ALS and other patients, therapeutic amounts (summary of all studies)",moderate to excellent improvement
same,muscle strength in retreated female non-responder of Example II,"ALS patients [5]; a few months later, evaluated in more detail",slight but definite improvement of muscle strength
same,"effect on mood, alertness, excitation, appetite or sleep","ALS patients [5]; human, in vivo",no noticeable effect
same,new side effects,"ALS patients [5]; human, in vivo",very transient taste noted within a few minutes; asthmatic phenomena lasting about five minutes during maximal shivering in two patients with a history of asthma
same,strength and head tremor in one patient with hereditary ALS,"ALS patients [5]; human, in vivo",improvement in strength and also improvement in a co-existing head tremor
same,"transient shivering, onset and end","ALS patients [5]; human, in vivo, sc",beginning at three to ten minutes and lasting until thirty to sixty minutes
same,neuromuscular stamina,ALS patients [5]; s.c.,clearly increased
same,"painful muscle cramps, spasms, spontaneous clonus and stiffness",ALS patients [5]; s.c.,eliminated or lessened for several days in all patients having them
same,painful spontaneous flexor withdrawal reflexes,ALS patients [5]; s.c.,remained eliminated for at least twelve days in some instances
same,swallowing,ALS patients [5]; s.c.,"increased, eliminating choking on food and saliva accumulation in the mouth"
same,"time benefits in strength, cramps, spasticity and clonus often endured undiminished",ALS patients [5]; s.c.,twenty-four hours
same,time to maximal increased strength,ALS patients [5]; s.c.,one-and-a-half to two minutes
same,improvement,ALS patients [5]; s.c. 150 mg once daily or 75 mg twice daily (summary),similarly striking improvement
same,response,"ALS patients [5]; s.c. 75-150 mg once daily or 75 mg twice daily, forty-one ALS patients, 461 days",beneficial responses
same,stair climbing,"ALS patients [5]; s.c., many patients",eleven flights of stairs (compared to two with difficulty before TRH)
same,aching of shoulder and hip joints,"ALS patients [5]; s.c., severe ALS",temporarily reduced or abolished for at least one to three days
same,recovery of lost abilities,"ALS patients [5]; s.c., some patients",regained abilities that had been lost for six to twelve months
same,"spasticity, clonus and muscle cramps","ALS patients [5]; s.c., when shivering diminished or one to three hours thereafter",improved from their before-treatment status or completely abolished or absent
same,subcutaneous dose required per body weight,ALS patients [5]; single injection,≥ 0.71 mg/kg of body weight
same,subcutaneous dose required,"ALS patients [5]; single injection once, or similar amount twice-a-day",at least 50 mg
same,"partial autorefractory state, onset and duration","ALS patients [6]; 125-150 mg s.c., first day","began by four to ten minutes and lasted, with fluctuations, two to three hours"
same,time to increased strength,"ALS patients [6]; 125-150 mg s.c., first day, twenty ALS patients",within one to two minutes
same,effect of second dose at twenty-four hours,ALS patients [6]; another 125-150 mg s.c.,marked weakness within two minutes
same,drug resistance on repeated treatment,"ALS patients [6]; i.v. or s.c., as long as eight months",no diminution of beneficial response attributable to drug resistance
